Measurements as given in PubChem BioAssay AID1902 (Broad Institute, 2009).
The source made the active and inactive calls.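 Rule for the calls: active = EC50 no more than a set limit of log units above the highest dose; inactive = the rest.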

Biological target: S. pyogenes SKKanGAS, kanamycin survival, BacTiterGlo, 6 h
Assay: SKKanGAS survival reduction under kanamycin, dose response, streptokinase promoter inhibitor project, SKKanGAS strain, luminescence, dose confirmation (AID 1902);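 note: lower survival reflects blocked streptokinase promoter driving kanamycin resistance gene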

Point of comparison: `COc1ccc(-c2cc3nc[nH]c(=O)c3s2)cc1`, EC50 8.36 µM. Against it:
- O=C(/C=C/c1ccc(Br)cc1)NC(=S)NNC(=O)c1ccco1 — 21-fold lower, 0.391 µM
- O=C(Nc1nc2ccc(SC(F)F)cc2s1)c1ccc(NS(=O)(=O)c2ccc(F)c(F)c2)cc1 — 4.4-fold lower, 1.89 µM
- COc1ccc(Cn2c(SCc3ccc(C)cc3)nc3cc(OC)c(OC)cc3c2=N)cc1Cl — 3.2-fold lower, 2.65 µM
- Cc1ccc(C(C)C)c(OCc2ccc(C(=O)N/N=C/c3cccc(O)c3O)cc2)c1 — within 1.5-fold, 5.66 µM
- COc1ccc(/C=C2/S/C(=N/N=C3\CC4CCC3(C)C4(C)C)NC2=O)cc1 (stereo not given) — within 1.5-fold, 10.7 µM
- CC(C)(C)c1ccc(CSc2cnn(C(C)(C)C)c(=O)c2Cl)cc1 — 1.7-fold lower, 4.99 µM
- C/C(=N/NC(=O)c1cc2ccccc2cc1O)C1C(=O)c2ccccc2C1=O — 5.3-fold lower, 1.57 µM
- O=C(N/N=C/c1c(O)n(C2CCCCC2)c(=S)[nH]c1=O)c1ccccc1 — 13-fold lower, 0.659 µM
- O=C(Nc1ccc(Br)cc1C(=O)O)c1ccc2c(c1)C(=O)N(Cc1ccccc1)C2=O — 7.3-fold lower, 1.15 µM
- CCCc1ccc(Oc2cn[nH]c2-c2ccc(O)c(C)c2O)cc1 — 4.6-fold lower, 1.8 µM
- CCCn1c(NC(=O)c2cccc(C)c2C)nc2ccccc21 — within 1.5-fold, 7.37 µM
- CCc1cccc2c(C(=O)COC(=O)/C=C/c3ccc(O)c(OC)c3)c[nH]c12 — within 1.5-fold, 7.63 µM
- Cc1ccc(CN2C(=O)c3ccccc3NC2c2cc(Br)ccc2O)cc1 (stereo not given) — 1.9-fold lower, 4.31 µM
- Cc1cc(C(C#N)c2ccc(Cl)cc2)c(Cl)cc1NC(=O)c1cc(I)cc(I)c1O (stereo not given) — 100-fold lower, 0.082 µM
- Oc1ccc(-c2nc3c4c(ncn3n2)-c2ccccc2CC42CCCC2)cc1 — 9.9-fold lower, 0.843 µM
- CCn1cc(C(=O)O)c(=O)c2cc(F)c(N3CCN(S(=O)(=O)c4ccc(NC(C)=O)cc4)CC3)cc21 — 1.8-fold lower, 4.65 µM
- CCOc1cccc(/C=N/Nc2ccc(S(=O)(=O)N(CC)CC)cn2)c1O — 2.8-fold lower, 2.94 µM
- Cc1cccc(/C=C/C(=O)c2ccc([N+](=O)[O-])o2)c1 — 1.7-fold lower, 4.81 µM
- c1ccc(-c2nnc(-c3ccccn3)nc2NC2CCCCC2)cc1 — 2.8-fold lower, 2.95 µM
- Cc1cc(N/N=C/c2ccccc2O)nc(-c2ccccc2O)n1 — 5.2-fold lower, 1.6 µM
- O=C(N/N=C/c1c(O)n(-c2ccccc2Cl)c(=O)c2ccccc12)C1COc2ccccc2O1 (stereo not given) — 2.2-fold lower, 3.74 µM
- COc1ccccc1N1CCN(C(=O)/C=C/c2c(Cl)nc3ccccn23)CC1 — 5.2-fold lower, 1.6 µM
- O=C1c2cccc3c([N+](=O)[O-])ccc(c23)C(=O)N1O — 7.2-fold lower, 1.16 µM
- O=C(NNC1=Nc2cccc3cccc1c23)c1ccc(Br)cc1 — 38-fold lower, 0.22 µM
- CC(=O)Nc1ccc(C#Cc2ccc(NC(C)=O)cc2)cc1 — 7-fold lower, 1.19 µM
- CN1CCN(c2cc3c(cc2F)c(=O)c(C(=O)O)cn3CCF)CC1 — 1.9-fold lower, 4.37 µM
- Cc1[nH]n(-c2ccccc2)c(=O)c1/C=N/NC(=O)c1cccc(F)c1 — 2.4-fold lower, 3.44 µM
- CSc1c(SCc2ccccc2)cnn(Cc2ccccc2)c1=O — 2.1-fold lower, 3.95 µM
- CC(C)(C)CC(=O)N1CCC(c2nc3c(nnn3Cc3c(F)cccc3Cl)c(=O)[nH]2)CC1 — 3-fold lower, 2.8 µM
- Cc1ccc(/C=N/NC(=O)Cc2ccc(Cl)cc2)c(O)c1 — 9.7-fold lower, 0.866 µM
- Oc1ccccc1/C=N/NC(=S)NC1CC2CCC1C2 (stereo not given) — 2.2-fold lower, 3.74 µM
- Cn1nnc(-c2ccc(OCc3ccccc3F)cc2)n1 — within 1.5-fold, 9.46 µM
- O=C(N/N=C/c1cc([N+](=O)[O-])ccc1O)c1cc(-c2ccccc2)nc2ccccc12 — 14-fold lower, 0.603 µM
- COc1cc(/C=C/C(=O)OCC(=O)c2c(N)n(C)c(=O)n(C)c2=O)ccc1OCC#N — 1.5-fold lower, 5.45 µM
- CC(C)CN(Cc1cc(=O)oc2cc3c(cc12)CCCC3)CC(C)C — within 1.5-fold, 7.82 µM
- CN(Cc1ccc(OC(F)F)cc1)Cc1nc2c(Br)cc(Br)cc2c(=O)[nH]1 — 2.8-fold lower, 2.98 µM
- COc1ccc(/C=C/C(=O)NC(=S)NNC(=O)c2cc(OC)c(OC)c(OC)c2)cc1 — 7.7-fold lower, 1.08 µM
- CCC(C)Sc1cc(C(F)(F)F)c(C(=O)Nc2ccc(Cl)cc2)cn1 (stereo not given) — within 1.5-fold, 7.31 µM
- O=C(O)c1ccc2c3c(ncnc13)-c1ccccc1C2=O — 1.6-fold lower, 5.26 µM
- CCOc1ccc(N(C)c2ccc(/C=C3/SC(=S)NC3=O)cc2)cc1 — 1.9-fold lower, 4.3 µM
- NC(=S)N/N=C\c1c(OCc2ccccc2Cl)ccc2ccccc12 — 3.3-fold lower, 2.53 µM
- Cc1ccc(/C(O)=C/C(=O)C(=O)NC23CC4CC(CC(C4)C2)C3)cc1 — 4.1-fold lower, 2.06 µM
- Cn1ncc2c(Nc3ccc(Br)cc3)nc(Nc3ccc(Br)cc3)nc21 — 7.7-fold lower, 1.08 µM
- N#C/C(=C(/O)COc1ccccc1)c1nc2ccccc2s1 — 1.7-fold higher, 14.5 µM
- Oc1c(Cl)cc(Cl)c2cccnc12 — 56-fold lower, 0.148 µM
- Nc1ccc(N=Nc2ccccc2)c2ccccc12 — within 1.5-fold, 6.71 µM
- COc1ccc(-c2oc(NC(=O)CSc3ncn[nH]3)c(C#N)c2-c2ccc(OC)cc2)cc1 — 2.3-fold lower, 3.61 µM
- CCC1(C)Cc2ccccc2-c2nc(-c3ccccc3)oc(=O)c21 (stereo not given) — 1.5-fold lower, 5.51 µM
- CCN(CC)S(=O)(=O)c1cc(OC)ccc1N=Nc1ccc(O)c2ncccc12 — 4.4-fold lower, 1.92 µM
- C[C@H]1[C@H](C)CC[C@]2(C(=O)O)CC[C@]3(C)C(=CC[C@@H]4[C@@]5(C)CC[C@H](O)C(C)(C)[C@@H]5CC[C@]43C)[C@H]12 — 4.7-fold lower, 1.79 µM

`CN(CC1CCCO1)S(=O)(=O)c1ccc(C(=O)Nc2ccc(F)cc2)cc1` (stereo not given) was tested, and the EC50 was > 15 µM (inactive).
With `COc1ccc(C(=O)NC2CCCCCC2)cc1S(=O)(=O)N1CCOCC1` the EC50 was > 15 µM (inactive).
In the case of `CCC(C(=O)N1CCC(N2CCCCC2)CC1)n1nc(C)c2sc3ccccc3c2c1=O` (stereo not given), the EC50 is reported as > 15 µM (inactive).
With `Cc1ccccc1OCC(=O)NC(=S)Nc1ccc(Br)c(C)n1` the EC50 was > 15 µM (inactive).
`O=C(Nc1ccc(F)cc1)N1CCCCCC1` was tested, and the EC50 was > 15 µM (inactive).
For `COc1ccc(C2/C=C\CN(C(=O)c3ccccc3)CC(=O)N2Cc2ccc(F)cc2)cc1` (stereo not given), the EC50 was > 15 µM (inactive).
For `COc1ccc(C(C)=O)cc1COc1cc(C)c(Cl)c(C)c1`, the EC50 was > 15 µM (inactive).
In the case of `Fc1cccc2sc(Nc3nc4cc5c(cc4s3)OCO5)nc12`, the EC50 is reported as > 15 µM (inactive).
`COC(=O)c1ccc(Cl)c(NC(=O)CSc2nnc(-c3ccncc3)o2)c1` was tested, and the EC50 was > 15 µM (inactive).
